The results in this text go back to ChEMBL document CHEMBL1201862, “PubChem BioAssay data set” (2004).

Among the test systems are LXFL 529; SNB-78; MDA-MB-435; MDA-N; PC-3; XF498; BT-549; Hs-578T; RXF 631.
Holding throughout (assay): DTP human tumour cell line panel, 48 h

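Cultured in 96-well plates, cells were exposed to test compound for 48 hours across five concentrations. Here, GI50 denotes the concentration required for 50% inhibition of growth.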 Calls of active or inactive are those of the source. Cut-off read from the data, not from the text of the source: active = GI50 up to about 1.1 µM and inactive = higher. Where a SMILES comes first, the peptide text is derived from it. The star is where a group is joined. Boc = CC(C)(C)OC(=O)*

As to `c1ccc(-c2nnc(-c3nsc4ccccc34)o2)cc1`, the GI50 was > 100 µM (inactive) in the assay with LXFL 529 and 98.9 µM (inactive) in the assay with SNB-78.
Consider `CC(C)(C)OC(=O)NC(Cc1ccccc1)C(=O)N1CCCC1C(N)=O` (stereo not drawn) (Boc-Phe-Pro-NH2; configuration not given here), for which the GI50 with MDA-MB-435, in the assay on MDA-N and in the assay on PC-3 was > 100 µM (inactive) throughout.
Regarding `c1ccc2c3c(ccc2c1)-c1[nH]ncc1CCO3`, the GI50 in the assay on SNB-78 was 29.2 µM (inactive); in the assay on XF498, 32.4 µM (inactive).
As to `CCCN(CCC)c1cc2c(cc1F)c(=O)c(C(=O)O)cn2-c1ccc(N2CCN(C)CC2)cn1`, the GI50 with BT-549 was 10.7 µM (inactive); with Hs-578T, 17 µM (inactive); in the assay with MDA-MB-435, 19.4 µM (inactive); in the assay on MDA-N, 20.1 µM (inactive); in the assay on PC-3 it was 19 µM (inactive).
With `Cc1ccc(N2C(=O)/C(=C3\SC(C(N)=O)=C(N)N3c3ccccc3)SC2=S)cc1`, the GI50 with LXFL 529 was > 100 µM (inactive).
On to `COc1ccc(-c2cc(O)c3ccc(C)nc3n2)cc1`, for which the GI50 in the assay with BT-549 and in the assay with Hs-578T was > 100 µM (inactive) each time.
Consider `CN1NC(c2ccc(Cl)cc2)=C(C#N)C(=O)CC1c1ccccc1` (stereo not drawn), for which the GI50 in the assay on LXFL 529 and in the assay on RXF 631 was > 100 µM (inactive) throughout.
In the case of `COC(=O)c1cccc(N[C@@H]2c3cc4c(cc3C(c3cc(OC)c(O)c(OC)c3)[C@H]3C(=O)OCC32)OCO4)c1` (stereo partly drawn), the GI50 in the assay on SNB-78 was 3.67 µM (inactive); in the assay on XF498, 0.701 µM (active).
With `CN1CCC(C(O)(c2ccccc2)c2ccc(Br)cc2)CC1` (stereo not drawn), the GI50 is > 100 µM (inactive) with BT-549; 23.8 µM (inactive) in the assay with Hs-578T; 15.5 µM (inactive) in the assay on MDA-MB-435; 15 µM (inactive) with MDA-N; 22.2 µM (inactive) with PC-3.
Take `COc1cc(O)c2c(=O)cc(C3(O)C=CC(=O)C=C3)oc2c1`: the figures for the GI50 in the assay with BT-549, in the assay on Hs-578T and in the assay with PC-3 were 0.363 µM (active), 0.968 µM (active) and 0.131 µM (active), respectively.
`O=C(Cc1nc2ccc(C(=O)c3ccccc3)cc2nc1O)C(=O)Nc1nc2ccccc2[nH]1`: the GI50 is 45.2 µM (inactive) with LXFL 529 and 65.5 µM (inactive) in the assay on RXF 631.
For `O=C(NN1C(=O)C(Cl)C1c1ccccc1O)c1ccccc1O` (stereo not drawn), in the assay with LXFL 529, the GI50 is 41.4 µM (inactive).
Consider `CCOCNC(=O)N(COCC)COCC`, for which the GI50 in the assay on LXFL 529, in the assay with RXF 631, with SNB-78 and with XF498 was > 100 µM (inactive) in each case.
On to `CC(Cc1ccccc1)Nc1ncnc2c1ncn2C1OC(CO)CC1O` (stereo not drawn), for which the GI50 in the assay on BT-549 was > 100 µM (inactive); with Hs-578T it was 58.7 µM (inactive); in the assay on MDA-MB-435, > 100 µM (inactive); in the assay with MDA-N, > 100 µM (inactive); with PC-3, > 100 µM (inactive).
With `CCOC(=O)C(Cc1ccc(N=NN(C)C)cc1)NC(=O)CC1c2ccccc2-c2ccccc21` (stereo not drawn), the GI50 in the assay with LXFL 529 is 50.5 µM (inactive).
As to `CSc1nc2c(c(N3CCOCC3)n1)C(O)n1c(nc3ccccc31)S2` (stereo not drawn), the GI50 in the assay with BT-549 was 30.5 µM (inactive); in the assay on Hs-578T, 23.7 µM (inactive); in the assay with MDA-MB-435 it was 95.3 µM (inactive); with MDA-N it was > 100 µM (inactive); in the assay with PC-3, 37.2 µM (inactive).
For `CCc1c(O)c2c(c(O)c1C(C)=O)C(=O)c1c(cc(O)c(C(=O)O)c1C(=O)O)C2=O`, in that order: > 100 µM (inactive), > 100 µM (inactive), > 100 µM (inactive), > 100 µM (inactive) and > 100 µM (inactive).
For the compound `Cc1nc2ccccc2c(=O)n1Nc1ccc(C(=O)O)cc1`, the GI50 in the assay with SNB-78 and in the assay with XF498 was > 100 µM (inactive) throughout.
For `CC(C)[C@](O)(C(=O)OCC1=CCN2CC[C@@H](O)[C@@H]12)[C@H](C)O`, the GI50 in the assay on SNB-78 and in the assay on XF498 was > 375 µM (inactive) in each case.
Consider `COc1cccc(NC(=O)CSc2nnc(-c3ccc(NC(C)=O)cc3)o2)c1`, for which the GI50 in the assay with LXFL 529 and in the assay on SNB-78 was > 100 µM (inactive) each time.
`O=C1C(Br)=CC2([N+](=O)[O-])CCNC3=C(C4=NCCc5c[nH]c(c54)C3=O)C2=C1Br` (stereo not drawn): the values for the GI50 in the assay on SNB-78 and in the assay with XF498 were 2.09 µM (inactive) and 2.24 µM (inactive), respectively.
Take `O=C(c1ccccc1)c1nc2ccc(Cl)cc2c2c1CCCO2`: the GI50 in the assay on LXFL 529 was > 100 µM (inactive); in the assay with SNB-78, > 100 µM (inactive); in the assay with XF498 it was 65.9 µM (inactive).
For `COc1cccc2c(Nc3ccc(S(=O)(=O)Nc4ncccn4)cc3)c3ccc([N+](=O)[O-])cc3nc12`, the GI50 was 59.7 µM (inactive) with BT-549; > 100 µM (inactive) in the assay on Hs-578T; 45.6 µM (inactive) in the assay with MDA-MB-435; 54.5 µM (inactive) with MDA-N; 40.6 µM (inactive) in the assay on PC-3.
As to `NC(C/C=C/P(=O)(O)O)C(=O)O` (stereo not drawn), the GI50 with Hs-578T, with MDA-MB-435, in the assay with MDA-N and in the assay with PC-3 was > 100 µM (inactive) in each case.
For the compound `Cc1cnc(Cl)nc1C(C#N)c1nc2ccccc2s1` (stereo not drawn), the GI50 in the assay on BT-549 is 12.4 µM (inactive); with MDA-MB-435, 22.5 µM (inactive); in the assay with MDA-N, 15 µM (inactive).
As to `NC(=O)CCC(NCc1c2ccccc2[n+]([O-])c2ccccc12)C(=O)O` (stereo not drawn), the results for the GI50 in the assay with LXFL 529 and in the assay with SNB-78 were 45.1 µM (inactive) and > 100 µM (inactive), respectively.
As to `Cc1ccc(S(=O)(=O)OC[C@@H]2CO2)cc1`, the GI50 with LXFL 529 was > 100 µM (inactive); with RXF 631, 68.7 µM (inactive); with SNB-78 it was > 100 µM (inactive).
Turning to `CC1C2CC(CC2O)C1(C)C` (stereo not drawn), the GI50 with BT-549, with Hs-578T, with MDA-MB-435, in the assay with MDA-N and with PC-3 was > 100 µM (inactive) each time.
